Assay results as given in patent publication US7637980B2, “Method of increasing photosynthesis in plants comprising an exposure thereof to lipochitooligosaccharides and compositions therefor” (McGill University, priority 1999, dated 2009).

What was measured:
Format in all cases: in vivo
[1] = system: corn (Zea mays cv Pioneer 3921); assay: Photosynthesis of corn after LCO spray, greenhouse
Experimental: (§1) Seeds of rice (Oryza sativa cv Cypress), canola (Brassica napus cv Springfield), corn (Zea mays cv Pioneer 3921) and melon (Cucumis melo cv Nova) were surface sterilized with 2% sodium hypochlorite for 3-4 min, washed with several changes of sterile distilled water and planted in plastic pots (15 cm dia) containing promix (Premier Brands Inc., New Rochelle, N.Y., USA).
(§2) Concentrations of LCO (10^−6 M-10^−12 M) were made with distilled water containing 0.02% Tween 20. A control treatment, containing 0.02% Tween 20, but no LCO was also applied. Since the rates of growth and development differed among the plant species used in the experiments, spray treatment was conducted at different times after planting In general, the spray was applied when the plants were big enough to allow easy measurements of leaf photosynthetic rates. The following are the ages of the plants when the sprays were conducted: soybean 21 days after planting (DAP), corn 25 DAP, rice 45 DAP, melon (35 DAP) and canola 30 DAP. The plants were sprayed with LCO solutions until dripping. The sprays were applied with an atomizer (Nalgene, USA). Each plant required 2-3 mL of spray solution. Each treatment was replicated at least five times and organized on the green house bench in a randomized complete block design. Each experiment (with each crop species) was repeated at least twice.
(§3) Photosynthesis was recorded every 24 h using a Li-Cor 6400 portable photosynthesis system (Li-Cor Inc., Lincoln, Neb., USA) for 6 days. In the case of soybean the photosynthesis in the second nodal leaf from the top was recorded while in the other species used in the photosynthetic rate was measured for the top-most fully expanded leaf. Soybean plants were harvested after seven days of LCO treatment and dried at 80° C. for 48 h. Data were analyzed with the Statistical Analysis System (SAS Inc., N.C., USA). Percent increase in photosynthesis over the control was calculated.

apple (cv Empire) = assay: Photosynthesis of field-grown apple after LCO spray
Experimental: These experiments were conducted at the horticultural research facility of McGill University, Ste-Anne-de-Bellevue, Quebec, Canada during July 2000. LCO of different concentrations (10^−8, and 10^−10M) were prepared as described above. Branches of apple (cv Empire) and Grapes (cv De Chaunac) were sprayed with LCO and the photosynthesis was observed every 24 h for five days with a Li-Cor 6400 portable photosynthesis system (Li-Cor Inc., USA). Each treatment was applied to three branches from the same plant. Care was taken to ensure that the branches were on the same level and orientation. Part of each branch was sprayed with LCO and the remaining part served as a control. The control portion of the branch was sprayed with distilled water containing the same amount of Tween 20 as the LCO treatment solution. Observations were taken on 15 leaves per replicate for each treatment. For both apple and grape the entire procedure was repeated twice on two different plants.

soybean = assay: Foliar spray of LCO on yield of soybean (2000 cropping season); conditions: for Seed yield/plant / Seed yield: 0% seed moisture; for Seed yield: assuming 500,000 plants per ha
Excerpt: LCO 10^−6 M improved the yield by about 60%. The increase in yield was due to the increase in the number of pods/plant. The 100-seed weight was not increased by LCO spray during the 2000 field season. Also of note, the LCO application in the field experiments in year 2000 were by spraying whole plots, as opposed to individual plants (1999). Thus, the LCO effects described in the present invention are also observable when using large production application methods.

[2] = system: rice (Oryza sativa cv Cypress); assay: Photosynthesis of rice after LCO spray, greenhouse
Experimental: as §1, §2, §3

Substance: Nod Bj V (C18:1, MeFeu)
- leaf internal CO2 concentration [1]: decreased
- stomatal aperture [1]: did not significantly alter
- increase in photosynthesis ([1]; in general): 10-20%
- Ci (apple (cv Empire)): without any effect
- stomatal conductance (apple (cv Empire)): increases
- transpiration (apple (cv Empire)): increased
- photosynthetic rate (apple (cv Empire); 10^−8 M LCO, five days after treatment): 14.1 μmol CO2 m^−2s^−1
- 100-seed weight (soybean; LCO 10^−6 M): 17.4 g
- Pod weight/plant (soybean; LCO 10^−6 M): 31.4 g
- Pods/plant (soybean; LCO 10^−6 M): 46.8
- Seeds/plant (soybean; LCO 10^−6 M): 118.0
- Seed yield/plant (soybean; LCO 10^−6 M): 21.0 g
- Seed yield (soybean; LCO 10^−6 M): 10.5 t/ha
- 100-seed weight (soybean; LCO 10^−8 M): 17.8 g
- Pod weight/plant (soybean; LCO 10^−8 M): 24.1 g
- Pods/plant (soybean; LCO 10^−8 M): 39.1
- Seeds/plant (soybean; LCO 10^−8 M): 96.4
- Seed yield/plant (soybean; LCO 10^−8 M): 16.2 g
- Seed yield (soybean; LCO 10^−8 M): 8.1 t/ha
- 100-seed weight (soybean; LCO 10^−10 M): 18.1 g
- Pod weight/plant (soybean; LCO 10^−10 M): 29.1 g
- Pods/plant (soybean; LCO 10^−10 M): 47.7
- Seeds/plant (soybean; LCO 10^−10 M): 117.7
- Seed yield/plant (soybean; LCO 10^−10 M): 21.8 g
- Seed yield (soybean; LCO 10^−10 M): 10.9 t/ha
- 100-seed weight (soybean; LCO spray, 2000 field season): not increased
- intercellular CO2 concentration [2]: unaffected
- stomatal conductance [2]: increases
- transpiration [2]: increases
- increase in photosynthesis ([2]; in general): 10-20%
